Measured values from patent US4105761A, “Anabolisant-androgenic compounds” (Roussel Uclaf, priority 1974, dated 1978).

Key:
[1] = tested on: castrated male rats (levator ani, seminal vesicules, prostate); experiment: Anabolisant-androgenic activity, Hershberger technique slightly modified (castrated rats, oral); assay type: in vivo, rat; details: for Levator ani weight / Prostate weight / Seminal vesicules weight: oral, 10 days
Protocol: This test was effected using the technique of Hershberger [Proc. Soc. Exp. Biol. Med., Vol. 83 (1953), p. 175] slightly modified and groups of 5 male rats 19 to 21 days old were castrated and then were treated daily for 10 days by oral administration of the test product in a solution containing 0.5 ml of olive oil and 0.5 ml of water containing 0.25% of carboxymethylcellulose. The animals were killed 24 hours after the last treatment and the prostate and seminal vesicules were removed and fixed for 24 hours in a solution of 10% formol in physiological serum. They were then dissected and weighed and the levator ani was removed and weighed in a fresh state. The increase in the weight of the genital organs indicate the anabolisant-androgenic activity of 17β-n-amyloxy-Δ^4,9,11 -estratriene-3-one and the results are reported in Table I and compared to the results of other trienic steroids.

hepatic cells = experiment: Hepatonocivity study (rabbit, oral, 4 consecutive days); assay type: in vivo
Protocol: 17β-n-amyloxy-Δ^4,9,11 -estratriene-3-one was orally administered for 4 consecutive days to a rabbit at a dose of 10 mg/kg and the animal was killed on the 5th day. […] (BSP).

[2] = 10 mg/kg orally, 4 consecutive days

| Structure (SMILES) | Levator ani weight ([1]; daily dose 100 μg/rat) | Prostate weight ([1]; daily dose 100 μg/rat) | Seminal vesicules weight ([1]; daily dose 100 μg/rat) | Levator ani weight ([1]; daily dose 10 μg/rat) | Prostate weight ([1]; daily dose 10 μg/rat) | Seminal vesicules weight ([1]; daily dose 10 μg/rat) | Levator ani weight ([1]; daily dose 1000 μg/rat) | Prostate weight ([1]; daily dose 1000 μg/rat) | Seminal vesicules weight ([1]; daily dose 1000 μg/rat) | other results |
| --- | --- | --- | --- | --- | --- | --- | --- | --- | --- | --- |
| C=C(C)CO[C@H]1CC[C@H]2[C@@H]3CCC4=CC(=O)CCC4=C3C=C[C@]12C [17β-(2'-methyl)allyloxy-Δ^4,9,11 estratriene 3-one] | 23.5 mg | 39.0 mg | 16.7 mg | – | – | – | – | – | – | Levator ani weight ([1]; daily dose 20 μg/rat): 29.0 mg; Prostate weight ([1]; daily dose 20 μg/rat): 34.1 mg; Seminal vesicules weight ([1]; daily dose 20 μg/rat): 17.0 mg; Levator ani weight ([1]; daily dose 500 μg/rat): 37.5 mg; Prostate weight ([1]; daily dose 500 μg/rat): 66.2 mg; Seminal vesicules weight ([1]; daily dose 500 μg/rat): 52.3 mg |
| CC(C)=CCO[C@H]1CC[C@H]2[C@@H]3CCC4=CC(=O)CCC4=C3C=C[C@]12C [17β-(3'-methyl)but-2'-enyloxy Δ^4,9,11-estratriene-3-one] | 49.2 mg | 39.0 mg | 36.7 mg | 28.7 mg | 12.8 mg | 8.2 mg | – | – | – | – |
| C[C@]12C=CC3=C4CCC(=O)C=C4CC[C@H]3[C@@H]1CC[C@@H]2OCC1CC1 [17β-(cyclopropyl)-methoxy-Δ^4,9,11-estratriene-3-one] | 33.3 mg | 41.7 mg | 26.4 mg | 20.7 mg | 18.4 mg | 9.9 mg | 49.2 mg | 88.7 mg | 97.1 mg | – |
| CC(C)CO[C@H]1CC[C@H]2[C@@H]3CCC4=CC(=O)CCC4=C3C=C[C@]12C [17β-isobutyloxy-Δ^4,9,11-estratriene-3-one] | 41.9 mg | 46.4 mg | 28.7 mg | 24.6 mg | 13.5 mg | 9.2 mg | 44.0 mg | 104.8 mg | 116.0 mg | – |
| CCCCCO[C@H]1CC[C@H]2[C@@H]3CCC4=CC(=O)CCC4=C3C=C[C@]12C [17β-n-amyloxy-Δ^4,9,11-estratriene-3-one] | – | – | – | 28.4 mg | 27.7 mg | 13.1 mg | – | – | – | tolerance by the hepatic cells (hepatic cells; 5 mg/kg): well tolerated; rate of oxalacetic transaminase (SGOT) (hepatic cells; [2]): increase; rate of retention of bromosulfonephtalein (BSP) (hepatic cells; [2]): without having caused a change; anabolisant-androgenic activity compared to other Δ^4,9,11 -estratrienes ([1]; administered orally, rats): clearly much superior; Levator ani weight ([1]; daily dose 30 μg/rat): 47.1 mg; Prostate weight ([1]; daily dose 30 μg/rat): 44.7 mg; Seminal vesicules weight ([1]; daily dose 30 μg/rat): 23.5 mg; Levator ani weight ([1]; daily dose 90 μg/rat): 53.1 mg; Prostate weight ([1]; daily dose 90 μg/rat): 79.0 mg; Seminal vesicules weight ([1]; daily dose 90 μg/rat): 64.0 mg |
| CCCO[C@H]1CC[C@H]2[C@@H]3CCC4=CC(=O)CCC4=C3C=C[C@]12C [17β-n-propyloxy-Δ^4,9,11-estratriene 3-one] | 25.3 mg | 33.5 mg | 14.9 mg | – | – | – | 38.7 mg | 74.4 mg | 66.8 mg | – |
